RP-LC retention time data for 80 compounds are collected here from the METLIN SMRT retention time set (Domingo-Almenara et al. 2019).

The nature of the series: gradient 5% acetonitrile 3 min, to 50% in 2 min, to 85% in 15 min, held 3 min, 100 µL/min. Conditions: column: Zorbax Extend-C18 2.1 x 50 mm; eluents: water / acetonitrile, 0.1% formic acid. A digest of the protocol: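 The mobile phases were water and acetonitrile, each with 0.1% formic acid, pumped at 100 μL/min through a Zorbax Extend-C18 column (2.1 × 50 mm, 1.8 μm). Pure standards were injected as mixtures of ~100 molecules and detected by a quadrupole time-of-flight mass spectrometer in positive and negative ionization mode. Retention time came from computationally picked adduct peaks, each inspected by hand.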
The compound `CCOC(=O)CNC(=O)Nc1ncc(-c2ccccc2)n1C` registered an RP-LC retention time of 613 s.

In turn, `CCCNC(=O)C1CCN(c2ccc(SCC(=O)Nc3ccc(C(C)C)cc3)nn2)CC1` yielded an RP-LC retention time of 657 s. Compound `CCc1csc(-c2ccc(N3CCN(C(=O)c4cccs4)CC3)nc2)n1` came in with an RP-LC retention time of 900 s. `CCNS(=O)(=O)c1cccnc1Nc1ccc(F)cc1` gave an RP-LC retention time of 942 s. With `OC[C@@H]1CN(C2CCSCC2)C[C@H]1c1nc(-c2cccnc2)no1` the figure was 555 s; with `CC(C)NC(=O)N1CCC(c2noc(-c3ccccn3)n2)C1` (stereo not given), 648 s; with `O=C(O)c1cc2cc(F)ccc2[nH]1`, 791 s. Compound `CCOc1ccc(N2CC(c3nc(-c4cccnc4)no3)CC2=O)cc1` (stereo not given) gave an RP-LC retention time of 759 s. With `COc1ccc(NC(=O)C2(C)CCCCC(=O)N2)cc1` (stereo not given), the RP-LC retention time stood at 640 s. `CCOC(=O)CSCC(=O)Nc1nnc(-c2cccc([N+](=O)[O-])c2)s1` yielded an RP-LC retention time of 764 s.

Compound `CCc1ccc(Oc2cc(N3CCC(C(=O)NCC(C)c4ccccc4)CC3)ncn2)cc1` (stereo not given) returned an RP-LC retention time of 1090 s. Compound `COc1cc(C(=O)N2CCN(c3cc(N4CCCC4)nc(C)n3)CC2)cc(OC)c1OC` registered an RP-LC retention time of 619 s. For `Cc1cccc(NS(=O)(=O)c2cc(-c3[nH]ncc3C(=O)N3CCCC3)oc2C)c1` the value was 716 s; for `O=C(NCc1ccc(Cl)cc1)C1CC(=O)N(c2n[nH]c3cccc(F)c23)C1` (stereo not given), 833 s. `O=C(NCc1ccccc1)c1nnc(-c2ccc(S(=O)(=O)N3CCCC3)cc2)o1` had an RP-LC retention time of 879 s. As to `CCc1ccc2nc(Nc3ncc4c(n3)CC(c3ccc(F)cc3)CC4=O)nc(C)c2c1` (stereo not given), the RP-LC retention time amounted to 835 s. For `COCCn1c(CC2CCN(C(=O)Nc3ccc(F)c(Cl)c3)C2)nc2cccnc21` (stereo not given) the value was 660 s; for `CCC1Oc2ccc(S(=O)(=O)N3CCC(C(=O)NC4CCCCCCC4)CC3)cc2NC1=O` (stereo not given), 977 s; for `COCc1nc(-c2ccc(OC3CCN(C(=O)c4n[nH]c5ccccc45)C3)cc2)no1` (stereo not given), 835 s. For `CCN1CCN(CCNC(=O)c2cc(=O)n3c(nc4ccccc43)s2)CC1` the value was 604 s; for `O=C(C1CCCN(c2nnc3ccc(C(F)(F)F)cn23)C1)N1CCCCC1` (stereo not given), 670 s; for `CCn1ncc(NC(=O)c2cccc(OC)c2)c(N2CCOCC2)c1=O`, 788 s.

In turn, `Cc1nnc2sc(-c3cccs3)nn2c1=O` came in with an RP-LC retention time of 664 s. With `Cc1nn(-c2ccccc2)c(C)c1S(=O)(=O)N1CCC(C(=O)N2CCOCC2)CC1` the figure was 740 s; with `Nc1ccc(OC(=O)Nc2ccc(O)cc2)cc1`, 608 s. With `Cc1ccc2cc(CCC(=O)NCCN3CCOCC3)c(=O)[nH]c2c1` the figure was 594 s; with `CCOC(=O)c1c(S(=O)(=O)N2CCC(C(=O)Nc3ccccc3C)CC2)c(C)n(CC)c1C`, 874 s. `CCOC(=O)c1cc(C)nc2c1c(=O)n(Cc1ccc(OC)cc1)c(=O)n2C` yielded an RP-LC retention time of 1020 s.

As to `COc1ccccc1N1CCN(c2cc(SCC(=O)Nc3ccc(F)cc3)ncn2)CC1`, the RP-LC retention time is 941 s. On to `O=C(CCc1nc(CSc2nnc(-c3ccccc3)o2)no1)Nc1ccccc1F`, for which the RP-LC retention time stood at 870 s. Compound `COc1ccc(-c2noc(Cc3nnc(-c4cccc(Cl)c4)o3)n2)cc1OC` displayed an RP-LC retention time of 973 s. On to `CCCn1nnc2cc(-c3noc(C4CC(=O)N(c5ccc(C)cc5)C4)n3)ccc21` (stereo not given), for which the RP-LC retention time turned out to be 964 s. For `COc1ccc(OC)c(-c2cn3ccn(-c4cccc(Cl)c4C)c(=O)c3n2)c1`, the RP-LC retention time stood at 924 s. `Cc1noc(CNC(=O)CN(C)c2nc3c(C)ccc(C)c3s2)n1` displayed an RP-LC retention time of 772 s. For `COc1cccc(C(O)CN2CCN(c3cccc(OC)c3)CC2)c1` (stereo not given) the value was 659 s; for `CCCn1c(=O)sc2cc(S(=O)(=O)N3CCC(C(=O)N4CCc5ccccc5C4)CC3)ccc21`, 989 s; for `CC[C@H](C)[C@H](NC(=O)N1C[C@@H]2C[C@@H](C1)c1cccc(=O)n1C2)C(=O)O`, 598 s.

`Cc1ccc(Cl)cc1NC(=O)CSc1nc2ncccc2c(=O)n1CC1CCCO1` (stereo not given) came in with an RP-LC retention time of 794 s.

`CCc1ccc(C2=C(C)C(N3CCCN(C(=O)NCCCOC)CC3)=NS2(=O)=O)cc1` registered an RP-LC retention time of 761 s. Regarding `COc1cccc(CNC(=O)C2(C)CCCN(C(=O)Nc3cccc(C)c3C)C2)c1` (stereo not given), the RP-LC retention time worked out at 855 s. `CC(=O)N1CCC2(CC1)OC(=O)C(C)=C2C(=O)NCCCN1CC(C)CC(C)C1` (stereo not given) yielded an RP-LC retention time of 587 s. In turn, `CCN(CC)C(C(=O)NC1CCCC1)c1cc2c(cc1[N+](=O)[O-])OCO2` (stereo not given) returned an RP-LC retention time of 586 s. As for `CCn1nccc1C(=O)Nc1cc(-c2cc3cc(OC)ccc3n2CC)[nH]n1`, the RP-LC retention time came out at 846 s.

In turn, `NC(=O)C1CCN(Cc2nc(-c3ccc(N4CCOCC4)nc3)no2)CC1` showed an RP-LC retention time of 563 s. With `CC(C)(CO)NCc1ccc(-c2ccccc2F)o1` the figure was 602 s; with `CCCCNC(=O)c1cc(NC(=O)C2CCC2)cc2nc(C)ccc12`, 644 s; with `CCn1cc(CN2CCC(N3C(=O)C4(CCCC4)C3c3ccccc3)CC2)cn1` (stereo not given), 673 s.

As for `Cc1ccc(NC(=O)Cn2nc3c(Oc4ccccc4C)nccn3c2=O)cc1F`, the RP-LC retention time was 825 s. `Cc1cccc(-c2nnc(Cc3nc(-c4ccc5c(c4)OCO5)no3)o2)c1` yielded an RP-LC retention time of 1010 s. In turn, `CCc1nc2ccccc2n1CC(O)COc1cc(C)c(Cl)c(C)c1` (stereo not given) showed an RP-LC retention time of 770 s. `COc1cccc(CNC(=O)C2(C)CCCN(C(=O)Nc3cc(Cl)ccc3OC)C2)c1` (stereo not given) yielded an RP-LC retention time of 990 s. In turn, `CCn1c(=O)c2ccccc2n(Cc2nc(-c3cc(OC)c(OC)c(OC)c3)no2)c1=O` yielded an RP-LC retention time of 936 s. With `Cc1cc(C)c2[nH]c3c(c(=O)c2c1)CN(CC(=O)NCc1ccc2c(c1)OCO2)CC3` the figure was 620 s; with `Cn1c(N2CCCN(C(=O)c3ccc(Br)o3)CC2)cc(=O)n(C)c1=O`, 653 s. `Cc1ccc(CNC(=O)CCc2c(C)nn(-c3cc(N4CCCCC4)ncn3)c2C)o1` returned an RP-LC retention time of 882 s. In the case of `COc1ccc(Cl)cc1NC(=O)NC1CCN(c2nc3ccccc3n(C)c2=O)CC1`, the RP-LC retention time was found to be 1010 s. With `CCn1cc(CCN2CCC(C(=O)N(C)C)CC2)c2cccnc21` the figure was 566 s; with `Cc1ccc(NS(=O)(=O)c2cc3n(c2)CCCN(C)C3=O)cc1C`, 720 s; with `CNC(=O)C1CCCN(c2nc3ncn(CC(=O)Nc4cc(F)ccc4C)c(=O)c3s2)C1` (stereo not given), 644 s. In turn, `Cc1nn(CC(=O)NCc2ccncc2)c(=O)c2nc(-c3ccccc3)sc12` gave an RP-LC retention time of 615 s.

On to `COc1ccc(C(=O)N2[C@H]3CC[C@@H]2c2cnc(-c4ccc(F)cc4)nc2C3)cn1`, for which the RP-LC retention time came to 892 s. `Cc1ccc(Nc2c(-c3ccc(N(C)C)cc3)nc3ccc(Br)cn23)cc1` returned an RP-LC retention time of 838 s.

On to `O=C(c1cc(-c2ccncc2)n[nH]1)N1CCCC(C(=O)N2CCN(C(=O)c3ccco3)CC2)C1` (stereo not given), for which the RP-LC retention time is 556 s. For the compound `CC(NC(=O)C1CCN(CCc2cn(C)c3ncccc23)CC1)c1ccccc1` (stereo not given), the RP-LC retention time came out at 644 s.

For `CSc1cccc(NC(=O)Cn2c(=O)cc(-c3nc(C(C)C)no3)c3ccccc32)c1`, the RP-LC retention time was determined as 928 s. Regarding `Clc1c(Cl)c(Cl)c2n[nH]nc2c1Cl`, the RP-LC retention time worked out at 962 s. The compound `Cc1cc(N2CCN(c3ccccn3)CC2)n2nc(C(F)(F)F)nc2n1` yielded an RP-LC retention time of 604 s. `CCOC(=O)c1cccc(Nc2c(-c3ccc(C)cc3)nc3cnccn23)c1` gave an RP-LC retention time of 941 s.

On to `CCn1nccc1C(=O)N1CCCN(c2nnc3ccccn23)CC1`, for which the RP-LC retention time is 879 s.

In turn, `COC(=O)c1cnc2nc(C)ccc2c1Nc1ccc(OC)cc1` showed an RP-LC retention time of 647 s. As to `CCOC(=O)COc1cc(-c2ccccc2)nc2ccc(NC(=O)Cc3cccs3)cc12`, the RP-LC retention time turned out to be 797 s. With `Cc1ccn(CC(=O)N2CC(n3cc(COc4ccc(F)cc4)nn3)C2)n1`, the RP-LC retention time worked out at 716 s.

Turning to `CCOc1ccc2c(n1)CCN(C(=O)Nc1ccc(C)cc1C)C2`, the RP-LC retention time amounted to 852 s. On to `COCCn1cc2c3c(cccc31)CN(C(=O)NCCC(C)C)CC2`, for which the RP-LC retention time stood at 912 s. With `Cc1[nH]c(C(=O)N2CCCC(C(=O)NCc3ccc(Cl)cc3)C2)c(C)c1C(=O)OC(C)C` (stereo not given) the figure was 610 s; with `CC1CCN(C(=O)c2ccc(OCC3CCN(C(=O)c4ccc(C#N)cc4)CC3)cc2)CC1`, 957 s.

As to `CSc1cccc(NC(=O)Nc2cccc(-c3ccc(N4CCCC4)nn3)c2)c1`, the RP-LC retention time was determined as 712 s. With `Cc1ccc(NC(=O)Cn2cnc3nc(N4CCC(C(=O)NC5CC5)CC4)sc3c2=O)cc1F` the figure was 703 s; with `COc1ccccc1CC1C(=O)Nc2ccc(Cl)cc21` (stereo not given), 948 s. With `CC1(CNS(=O)(=O)c2ccc(F)c(F)c2)CCOCC1`, the RP-LC retention time is 810 s.
